Laboratory results as given in patent publication US8574563B2 (Bristol-Myers Squibb Company, priority 2006, dated 2013).

System: HCV 1b-377-neo replicon cells
Test: HCV replicon assay, HCV 1b-377-neo replicon cells (1b FRET)
Type: cell-based, Hepatitis C virus genotype 1b
Details: Hepatitis C virus, HCV 1b-377-neo replicon cells; HCV 1b genotype; read-out: EC50 range against HCV 1b (Table 2, Range)
Procedure, shortened: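 Compounds tested in HCV genotype 1b-377-neo replicon cells with a FRET read-out. Cells resistant to a reference NS5A inhibitor through a Y2065H NS5A mutation were run alongside wild-type cells.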

Row | SMILES | EC50
1 | Cc1nc([C@@H]2CCCN2C(=O)[C@@H](c2ccccc2)N2CCCCC2)[nH]c1-c1ccc(-c2ccc(-c3nc([C@@H]4CCCN4C(=O)[C@@H](c4ccccc4)N4CCCCC4)[nH]c3C)cc2)cc1 [Example E5i, 1,1′-(4,4′-biphenyldiylbis((4-methyl-1H-imidazole-5,2-diyl)(2S)-2,1-pyrrolidinediyl((1R)-2-oxo-1-phenyl-2,1-ethanediyl)))dipiperidine] | 0.001 to 0.999 nM
2 | CN(C)[C@@H](C(=O)N1CCC[C@H]1c1ncc(-c2ccc(-c3ccc(-c4cnc([C@@H]5CCCN5C(=O)[C@H]5CCCO5)[nH]4)cc3)cc2)[nH]1)c1ccccc1 [Example 86, (1R)-N,N-dimethyl-2-oxo-1-phenyl-2-((2S)-2-(5-(4′-(2-((2S)-1-((2R)-tetrahydro-2-furanylcarbonyl)-2-pyrrolidinyl)-1H-imidazol-5-yl)-4-biphenylyl)-1H-imidazol-2-yl)-1-pyrrolidinyl)ethanamine] | 0.001 to 0.999 nM
3 | COCC[C@H](NC(=O)OC)C(=O)N1CCC[C@H]1c1ncc(-c2ccc(-c3ccc(-c4cnc([C@@H]5CCCN5C(=O)[C@H]5CCC[C@@H]5NC(=O)OC)[nH]4)cc3)cc2)[nH]1 [cj-122, methyl ((1S,2S)-2-(((2S)-2-(5-(4′-(2-((2S)-1-(N-(methoxycarbonyl)-O-methyl-L-homoseryl)-2-pyrrolidinyl)-1H-imidazol-5-yl)-4-biphenylyl)-1H-imidazol-2-yl)-1-pyrrolidinyl)carbonyl)cyclopentyl)carbamate] | 0.001 to 0.999 nM
4 | COC(=O)N[C@H](C(=O)N1CCC[C@H]1c1nc(C)c(-c2ccc(-c3ccc(-c4nc([C@@H]5CCCN5C(=O)[C@@H](NC(=O)OC)[C@@H](C)OC)[nH]c4C)cc3)cc2)[nH]1)C(C)OC (stereo in doubt) [Example E5m, methyl ((1S,2R)-2-methoxy-1-(((2S)-2-(4-(4′-(2-((2S)-1-(N-(methoxycarbonyl)-O-methyl-L-threonyl)-2-pyrrolidinyl)-5-methyl-1H-imidazol-4-yl)-4-biphenylyl)-5-methyl-1H-imidazol-2-yl)-1-pyrrolidinyl)carbonyl)propyl)carbamate] | 0.001 to 0.999 nM
5 | CC[C@H](NC(=O)OC)C(=O)N1CCC[C@H]1c1ncc(-c2ccc(-c3ccc(-c4cnc([C@@H]5CCCN5C(=O)[C@@H](c5ccccc5)N(CC)CC)[nH]4)cc3)cc2)[nH]1 [Example M55, methyl ((1S)-1-(((2S)-2-(5-(4′-(2-((2S)-1-((2R)-2-(diethylamino)-2-phenylacetyl)-2-pyrrolidinyl)-1H-imidazol-5-yl)-4-biphenylyl)-1H-imidazol-2-yl)-1-pyrrolidinyl)carbonyl)propyl)carbamate] | 1 to 99 nM
6 | CN(C)[C@@H](C(=O)N1CCC[C@H]1c1ncc(-c2ccc(-c3ccc(-c4cnc([C@@H]5CCCN5C(=O)Cc5cccs5)[nH]4)cc3)cc2)[nH]1)c1ccccc1 [Example 94-47, (1R)-N,N-dimethyl-2-oxo-1-phenyl-2-((2S)-2-(5-(4′-(2-((2S)-1-(2-thienylacetyl)-2-pyrrolidinyl)-1H-imidazol-5-yl)-4-biphenylyl)-1H-imidazol-2-yl)-1-pyrrolidinyl)ethanamine] | 0.001 to 0.999 nM
7 | CC[C@H](NC(=O)OC)C(=O)N1[C@H](c2ncc(-c3ccc(-c4ccc(-c5cnc([C@@H]6C[C@@H]7C[C@@H]7N6C(=O)[C@H](CC)NC(=O)OC)[nH]5)cc4)cc3)[nH]2)C[C@@H]2C[C@@H]21 [Example M126, dimethyl (4,4′-biphenyldiylbis(1H-imidazole-5,2-diyl(1S,3S,5S)-2-azabicyclo[3.1.0]hexane-3,2-diyl((2S)-1-oxo-1,2-butanediyl)))biscarbamate] | 1 to 99 nM
8 | CN(C)[C@@H](C(=O)N1CCC[C@H]1c1ncc(-c2ccc(-c3ccc(-c4cnc([C@@H]5CCCN5C(=O)N5CCCC5)[nH]4)cc3)cc2)[nH]1)c1ccccc1 [Example 94, (1R)-N,N-dimethyl-2-oxo-1-phenyl-2-((2S)-2-(5-(4′-(2-((2S)-1-(1-pyrrolidinylcarbonyl)-2-pyrrolidinyl)-1H-imidazol-5-yl)-4-biphenylyl)-1H-imidazol-2-yl)-1-pyrrolidinyl)ethanamine] | 0.001 to 0.999 nM
9 | O=C(N[C@@H](C(=O)N1CCC[C@H]1c1ncc(-c2ccc(-c3ccc(-c4cnc([C@@H]5CCCN5C(=O)[C@@H]5CCCO5)[nH]4)cc3)cc2)[nH]1)c1ccccc1)[C@H]1CCCO1 [Example 110, (2R)—N-((1R)-2-oxo-1-phenyl-2-((2S)-2-(5-(4′-(2-((2S)-1-((2S)-tetrahydro-2-furanylcarbonyl)-2-pyrrolidinyl)-1H-imidazol-5-yl)-4-biphenylyl)-1H-imidazol-2-yl)-1-pyrrolidinyl)ethyl)tetrahydro-2-furancarboxamide] | 0.001 to 0.999 nM
10 | CN(C)[C@@H](C(=O)N1CCC[C@H]1c1ncc(-c2ccc(-c3ccc(-c4[nH]c([C@@H]5CCCN5C(=O)[C@@H](c5ccccc5)N(C)C)nc4C(=O)OCc4ccccc4)cc3)cc2)[nH]1)c1ccccc1 [Example J22, benzyl 2-((2S)-1-((2R)-2-(dimethylamino)-2-phenylacetyl)-2-pyrrolidinyl)-5-(4′-(2-((2S)-1-((2R)-2-(dimethylamino)-2-phenylacetyl)-2-pyrrolidinyl)-1H-imidazol-5-yl)-4-biphenylyl)-1H-imidazole-4-carboxylate] | 0.001 to 0.999 nM
11 | COC(=O)N[C@@H](C(=O)N1CCC[C@H]1c1ncc(-c2ccc(-c3ccc(-c4cnc([C@@H]5CCCN5C(=O)[C@H](OC)c5ccccc5)[nH]4)cc3)cc2)[nH]1)c1ccccc1Cl [Example 107-43, methyl ((1R)-1-(2-chlorophenyl)-2-((2S)-2-(5-(4′-(2-((2S)-1-((2R)-2-methoxy-2-phenylacetyl)-2-pyrrolidinyl)-1H-imidazol-5-yl)-4-biphenylyl)-1H-imidazol-2-yl)-1-pyrrolidinyl)-2-oxoethyl) carbamate] | 0.001 to 0.999 nM
12 | COC(=O)N[C@@H](C(=O)N1CCC[C@H]1c1ncc(-c2ccc(-c3ccc(-c4cnc([C@@H]5CCCN5C(=O)[C@@H](Nc5ncccn5)C(C)C)[nH]4)cc3)cc2)[nH]1)c1ccccc1 [cj-11b, methyl ((1R)-2-oxo-1-phenyl-2-((2S)-2-(5-(4′-(2-((2S)-1-(N-2-pyrimidinyl-L-valyl)-2-pyrrolidinyl)-1H-imidazol-5-yl)-4-biphenylyl)-1H-imidazol-2-yl)-1-pyrrolidinyl)ethyl)carbamate] | 0.001 to 0.999 nM
13 | COC(=O)N[C@@H](C(=O)N1CCC[C@H]1c1ncc(-c2ccc(-c3ccc(-c4cnc([C@@H]5CCCN5C(=O)[C@@H](c5ccccc5)N(C)C)[nH]4)cn3)cc2)[nH]1)c1ccccc1 [Example 140, methyl ((1R)-2-((2S)-2-(5-(4-(5-(2-((2S)-1-((2R)-2-(dimethylamino)-2-phenylacetyl)-2-pyrrolidinyl)-1H-imidazol-5-yl)-2-pyridinyl)phenyl)-1H-imidazol-2-yl)-1-pyrrolidinyl)-2-oxo-1-phenylethyl)carbamate] | 0.001 to 0.999 nM
14 | CN(C)[C@@H](C(=O)N1CCC[C@H]1c1ncc(-c2ccc(-c3ccc(-c4cnc([C@@H]5CCCN5C(=O)Cc5cnc[nH]5)[nH]4)cc3)cc2)[nH]1)c1ccccc1 [Example 94-50, (1R)-2-((2S)-2-(5-(4′-(2-((2S)-1-(1H-imidazol-5-ylacetyl)-2-pyrrolidinyl)-1H-imidazol-5-yl)-4-biphenylyl)-1H-imidazol-2-yl)-1-pyrrolidinyl)-N,N-dimethyl-2-oxo-1-phenylethanamine] | 0.001 to 0.999 nM
15 | COC(=O)N[C@@H](C(=O)N1C[C@@H](O)C[C@H]1c1ncc(-c2ccc(-c3ccc(-c4cnc([C@@H]5C[C@H](O)CN5C(=O)[C@H](NC(=O)OC)c5ccccc5)[nH]4)cc3)cc2)[nH]1)c1ccccc1 [Example 24-17, dimethyl (4,4′-biphenyldiylbis(1H-imidazole-5,2-diyl((2S,4S)-4-hydroxy-2,1-pyrrolidinediyl)((1R)-2-oxo-1-phenyl-2,1-ethanediyl)))biscarbamate] | 0.001 to 0.999 nM
16 | CCN[C@@H](C(=O)N1CCC[C@H]1c1ncc(-c2ccc(-c3ccc(-c4c[nH]c([C@@H]5CCCN5C(=O)[C@H](C)NC(=O)OC)n4)cc3)cc2)[nH]1)c1ccccc1 [Example F41, methyl ((1S)-2-((2S)-2-(4-(4′-(2-((2S)-1-((2R)-2-(ethylamino)-2-phenylacetyl)-2-pyrrolidinyl)-1H-imidazol-5-yl)-4-biphenylyl)-1H-imidazol-2-yl)-1-pyrrolidinyl)-1-methyl-2-oxoethyl)carbamate] | 0.001 to 0.999 nM
17 | CCN(CC)[C@@H](C(=O)N1CCC[C@H]1c1ncc(-c2ccc(-c3ccc(-c4nc([C@@H]5CCCN5C(=O)[C@@H](c5ccccc5)N(CC)CC)[nH]c4C)cc3)cc2)[nH]1)c1ccccc1 [Example E5a, (1R)-2-((2S)-2-(4-(4′-(2-((2S)-1-((2R)-2-(diethylamino)-2-phenylacetyl)-2-pyrrolidinyl)-1H-imidazol-4-yl)-4-biphenylyl)-5-methyl-1H-imidazol-2-yl)-1-pyrrolidinyl)-N,N-diethyl-2-oxo-1-phenylethanamine] | 0.001 to 0.999 nM
18 | CC(C)[C@@H](NC(=O)OC(C)(C)C)C(=O)N1[C@@H]2C[C@@H]2C[C@H]1c1nc(-c2ccc(-c3ccc(-c4c[nH]c([C@@H]5C[C@H]6C[C@H]6N5C(=O)[C@H](NC(=O)OC(C)(C)C)C(C)C)n4)cc3)cc2)c[nH]1 [Example M142, tert-butyl ((1R)-1-(((1R,3S,5R)-3-(4-(4′-(2-((1R,3S,5R)-2-((2R)-2-((tert-butoxycarbonyl)amino)-3-methylbutanoyl)-2-azabicyclo[3.1.0]hex-3-yl)-1H-imidazol-4-yl)-4-biphenylyl)-1H-imidazol-2-yl)-2-azabicyclo[3.1.0]hex-2-yl)carbonyl)-2-methylpropyl)carbamate] | 1 to 99 nM
19 | CC(=O)N[C@@H](C(=O)N1CCC[C@H]1c1ncc(-c2ccc(-c3ccc(-c4cnc([C@@H]5CCCN5C(=O)[C@H](NC(C)=O)c5ccccc5)[nH]4)cn3)cc2)[nH]1)c1ccccc1 [Example 139, N-((1R)-2-((2S)-2-(5-(6-(4-(2-((2S)-1-((2R)-2-acetamido-2-phenylacetyl)-2-pyrrolidinyl)-1H-imidazol-5-yl)phenyl)-3-pyridinyl)-1H-imidazol-2-yl)-1-pyrrolidinyl)-2-oxo-1-phenylethyl)acetamide] | 0.001 to 0.999 nM
